{"source": "patent US9371335B2", "about": "“Spirothienopyran-piperidine derivatives as ORL-1 receptor antagonists for their use in the treatment of alcohol dependence and abuse” (Eli Lilly and Company, priority 2011, dated 2016)", "tested_on": "extracellular dopamine (DA) in the rat nucleus accumbens", "assay": "Ethanol-stimulated increases in extracellular dopamine levels in the nucleus accumbens (microdialysis)", "type": "in vivo, Sprague-Dawley rats", "description": "Ethanol-Stimulated Increases in Extracellular Dopamine Levels in the Nucleus Accumbens:\nMale Sprague-Dawley rats with a body weight of 260-300 g from Taconic Farms (Germantown, N.Y.) are implanted with a guide cannula (Bioanalytical Systems Inc, West Lafayette, Ind.) in the nucleus accumbens by the vendor 5-7 days before the experiment. Stereotaxic coordinates for the nucleus accumbens cannula are: A (anterior to bregma), 1.7 mm; L (lateral from the midsagittal suture, right side), 1.0 mm; and V (ventral from the dura surface), −6.0 mm (Paxinos and Watson, 1986). A concentric type probe (BR-2) from Bioanalytical Systems Inc. (West Lafayette, Ind.) is flushed with water and carefully inserted through the cannula about 16 hours before the experiment so that 2 mm of the membrane tip extends below the end of the guide cannula. The rat is then placed in a plastic test bowl to acclimate overnight. Based on methods modified from Melendez et al. (Melendez R I, Rodd-Henricks Z A, McBride W J and Murphy J M (2003), Alcohol stimulates the release of dopamine in the ventral pallidum but not in the globus pallidus: a dual-probe microdialysis study. Neuropsychopharmacology 28:939-946), the rat is connected to a fraction collection system for freely moving animals on the morning of the experiment (Raturn, BioAnalytical Systems Inc, West Lafayette, Ind.). The input tube of the dialysis probe is connected to a syringe pump (BeeHive and BabyBee, Bioanalytical Systems Inc, West Lafayette, Ind.) which delivers an artificial cerebrospinal fluid (150 mM NaCl, 3 mM KCl, 1.7 mM CaCl2 and 0.9 mM MgCl2 ([…])) to the probe at a final collection rate of 1.5 μL/min. The output tubes from the rats are attached to a refrigerated fraction collector (Bioanalytical Systems Inc, West Lafayette, Ind.). After a period of about an hour at an initial perfusion rate of 5.0 μL/min, the flow rate is decreased to 2.0 μL/min for equilibration of the probe and establishment of stable baseline levels for 1 hour, then collection of 20 minute fractions is started. Four baseline samples are collected before injection of any drugs.\nTest compound is administered orally at 30 mg/kg (2 ml/kg dose volume, dissolved in a vehicle consisting of 20% Captisol® in 25 mM phosphate buffer at pH=3). The compound is administered either alone (10 min into the 4th sample; 0 min time point) or in combination with ethanol (10 min into the 1st sample; −60 min time point). Ethanol is administered intraperitoneally (ip) at a dose of 1.1 g/kg in a 15% (v/v) solution in 0.9% saline in a volume of 2.9 ml per rat. Ethanol is administered 10 min into the 4th sample (0 min time point). Dialysate samples are transferred to an Alcott 718 Autosampler/Injector with the sample cooling tray set to 5° C. (Alcott Inc., Norcross, Ga.). […]", "key": {"[1]": {"settings": "compound 30 mg/kg oral + EtOH 1.1 g/kg ip"}}, "data": [{"smiles": "Cc1nn(-c2ncccc2CO)cc1CN1CCC2(CC1)OCC(F)(F)c1cc(Cl)sc12", "note": "[Compound 1, [2-[4-[(2-chloro-4,4-difluoro-spiro[5H-thieno[2,3-c]pyran-7,4′-piperidine]-1′-yl)methyl]-3-methyl-pyrazol-1-yl]-3-pyridyl]methanol]", "values": [{"measurement": "Mean DA level (% of baseline) during 120 min period post-EtOH injection", "setting": "[1]", "value": "102.78 % of baseline"}, {"measurement": "Reduction of DA response relative to Vehicle", "setting": "[1]", "value": 88.16, "unit": "%"}, {"measurement": "Mean DA level (% of baseline) during 120 min period post-EtOH injection", "setting": "compound 30 mg/kg oral + Vehicle (no ethanol)", "value": "98.53 % of baseline"}, {"measurement": "ethanol-stimulated increase in extracellular DA concentration in the nucleus accumbens", "setting": "result in words", "value": "prevent the increase in extracellular DA concentrations in the nucleus accumbens"}]}]}
